# Test results reported in publication PMC2033360, “Effects of a new antioestrogen, idoxifene, on cisplatin- and doxorubicin-sensitive and -resistant human ovarian carcinoma cell lines” (British Journal of Cancer, 1994).
# Like-named read-outs stand apart in the source and are kept apart here.
# What was measured:
# [1] = test system: CH1cisR6 cells; conditions: acquired cisplatin-resistant line versus parent
# [2] = test system: 41McisR6 cells; experiment: SRB cytotoxicity assay, 41McisR6; format: cell-based, human; conditions: acquired cisplatin-resistant line versus parent
# [3] = target: T1, calmodulin-dependent cyclic AMP phosphodiesterase (Homo sapiens, UniProt P0DP23); experiment: Inhibition of calmodulin-dependent cyclic AMP phosphodiesterase; format: biochemical; conditions: unpublished data of the authors
# Excerpt: (§1) Sary Pyroidno-4-iodotamoxifen (idoxifene) is a new non-steroidal antioestrogen currently undergoig phase I clnical evaluation. […] One agent that has featured in studies of both doxorubicin and cilatin resist- ance has been the extensively used antioestrogen tamoxifen. […] Tlhe purposes of this study were 3-fold. Initially, using a series of tamoxifen analogues of known inhibitory constants for calmodulin, the effect of increasing calmodulin inhibition on cytotoxicity against four human ovarian carcnoma cell lines was determined. […] Materials and mehod Drugs and chemicals The structures of tamoxifen and the various analogues of tamoxifen used are illustrated in Figure 1. […] Calmidazolium (R24571), Correspondence: L.R. Kelland, Drug Development Section, The Institute of Cancer Research, Block E, 15 Cotswold Road, Sutton, Surrey SM2 5NG, UK. […] Cytotoxicity data were then fitted to regression lines, and the concentration of each drug which produced a given level of cytotoxicity (fractional effect, Fa) alone or in combination was determined. Combination index (CI) for a given Fa was calculated as: CI = d' + td D-1 + D2 where DI and D2 are the doses of drugs 1 and 2, which by themselves produce a given Fa (i.e. IC5o); d' and d2 are the doses which produce the same Fa in combination. […]
# [4] = test system: CH1cisR6 cells; experiment: DNA interstrand cross-link repair by alkaline elution, CH1cisR6; format: cell-based, human
# Excerpt: as §1
# [5] = test system: CH1 cells; experiment: DNA interstrand cross-link repair by alkaline elution, CH1; format: cell-based, human
# Excerpt: as §1
# [6] = test system: CH1doxR cells; experiment: SRB cytotoxicity assay, CH1doxR; conditions: for Rf, resistance factor (IC50 resistant line/IC50 parent line), CH1doxR/CH1: doxorubicin resistance
# Excerpt: (§2) Sary Pyroidno-4-iodotamoxifen (idoxifene) is a new non-steroidal antioestrogen currently undergoig phase I clnical evaluation. […] One agent that has featured in studies of both doxorubicin and cilatin resist- ance has been the extensively used antioestrogen tamoxifen. […] Tlhe purposes of this study were 3-fold. Initially, using a series of tamoxifen analogues of known inhibitory constants for calmodulin, the effect of increasing calmodulin inhibition on cytotoxicity against four human ovarian carcnoma cell lines was determined. […] Materials and mehod Drugs and chemicals The structures of tamoxifen and the various analogues of tamoxifen used are illustrated in Figure 1. […] Calmidazolium (R24571), Correspondence: L.R. Kelland, Drug Development Section, The Institute of Cancer Research, Block E, 15 Cotswold Road, Sutton, Surrey SM2 5NG, UK. […] Briefly, the analysis compares the effects of drug combinations to the effects of individual drugs across the entire dose-effect range. Cytotoxicity data were then fitted to regression lines, and the concentration of each drug which produced a given level of cytotoxicity (fractional effect, Fa) alone or in combination was determined. Combination index (CI) for a given Fa was calculated as: CI = d' + td D-1 + D2 where DI and D2 are the doses of drugs 1 and 2, which by themselves produce a given Fa (i.e. IC5o); d' and d2 are the doses which produce the same Fa in combination. CI= I indicates zero interaction (additive cytotoxicity), CI <I indicates synergy and CI> 1 indicates antagonism (Chou computer program, Biosoft). […] All cell lines were grown as monolayers in Dulbecco's modified Eagle medium (DMEM) supplemented with 10% heat-iactivated fetal calf serum (Imperial Laboratores, Andover, UK), 50 gml-' gentamic 2.5 jg ml-' ampho- tericin B, 2 mM L-glutmie 10 jag ml- insulin and 0.5 jgmml' hydrocorisone in a 10% carbon dioxide, 90% air atmosphere. […] Assssment of cytotoxicity Tamoxifen and the analogues of tamoxifen were dissolved immediately before use in absolute ethanol at 20 mM. […]
# [7] = test system: 41M cells; experiment: SRB cytotoxicity assay, 41M; conditions: Homo sapiens, read-out: 96 h IC50, doxorubicin cytotoxicity, 41M
# Excerpt: as §1
# [8] = test system: CH1 cells; experiment: SRB cytotoxicity assay, CH1; conditions: Homo sapiens, CH1, read-out: 96 h IC50, doxorubicin cytotoxicity, CH1
# [9] = test system: 41MdoxR cells; experiment: SRB cytotoxicity assay, 41MdoxR; conditions: for Rf, resistance factor (IC50 resistant line/IC50 parent line), 41MdoxR/41M: doxorubicin resistance
# Excerpt: as §2
# [10] = target: T1, calmodulin-dependent cyclic AMP phosphodiesterase; set-up: method as in Rowlands et al., 1990; conditions: values taken from previous determinations; ref Rowlands et al., 1990; read-out: calmodulin IC50 (inhibition of calmodulin-dependent cyclic AMP phosphodiesterase); cited from earlier work
# [11] = test system: human ovarian carcinoma cell lines; experiment: Highest non-toxic concentration of the resistance modifiers, preliminary experiments; format: cell-based; conditions: <10% cell kill in any one cell line; continuous drug exposure
# Excerpt: as §1
# [12] = test system: 41McisR6 cells; experiment: Intracellular platinum accumulation (flameless atomic absorption), 41McisR6; format: cell-based, human; conditions: 2 h exposure to cisplatin alone or with 2 microM idoxifene
# Excerpt: as §1
# [13] = test system: CH1cisR6 cells; experiment: Intracellular platinum accumulation (flameless atomic absorption), CH1cisR6; format: cell-based, human; conditions: 2 h exposure to cisplatin alone or with 2 microM idoxifene
# Excerpt: as §1
# [14] = test system: four human ovarian carcinoma cell lines; experiment: cells; conditions: read-out: mean IC50 across four human ovarian carcinoma cell lines (cytotoxicity)
# Excerpt: as §1
# [15] = after 2 h exposure to cisplatin 25 microM, removed at 2 h versus 5 h (so in the source)
# [16] = after 2 h cisplatin 25 microM, removal in presence of 2 microM idoxifene
smiles,measurement,setting,value
CC/C(=C(/c1ccc(OCCN(C)C)cc1)c1cccc(O)c1)c1ccccc1 [3-hydroxytamoxifen],"Rf, resistance factor (IC50 resistant line/IC50 parent line), CH1cisR6/CH1",[1],< 1
same,"Rf, resistance factor (IC50 resistant line/IC50 parent line), 41McisR6/41M",[2],< 1
same,IC50,[3],13000 nM
CC/C(=C(/c1ccc(I)cc1)c1ccc(OCCN(C)C)cc1)c1ccccc1 [4-iodotamoxifen],"Rf, resistance factor (IC50 resistant line/IC50 parent line), CH1cisR6/CH1",[1],< 1
same,"Rf, resistance factor (IC50 resistant line/IC50 parent line), 41McisR6/41M",[2],< 1
Clc1ccc(C(c2ccc(Cl)cc2)n2cc[n+](CC(OCc3ccc(Cl)cc3Cl)c3ccc(Cl)cc3Cl)c2)cc1 (stereo not drawn) [calmidazolium],"Rf, resistance factor (IC50 resistant line/IC50 parent line), CH1cisR6/CH1",[1],< 1
same,"Rf, resistance factor (IC50 resistant line/IC50 parent line), 41McisR6/41M",[2],< 1
"N.N.[Cl][Pt][Cl] [cisplatin, cis-diamminedichloroplatinum (II)]","removal of cross-links, CH1cisR6",[4]; [15],90%
same,"removal of cross-links, CH1",[5]; [15],15%
COc1cccc2c1C(=O)c1c(O)c3c(c(O)c1C2=O)C[C@@](O)(C(=O)CO)C[C@@H]3O[C@H]1C[C@H](N)[C@H](O)[C@H](C)O1 [doxorubicin],IC50,"[6]; Homo sapiens, read-out: 96 h IC50, doxorubicin cytotoxicity, CH1doxR",460 nM
same,"Rf, resistance factor (IC50 resistant line/IC50 parent line), CH1doxR/CH1",[6],~90
same,"Rf, resistance factor (IC50 resistant line/IC50 parent line), CH1doxR/CH1",[6]; listed as Doxorubicin,87
same,IC50,[7],39 nM
same,IC50,[8],5.3 nM
same,IC50,"[9]; Homo sapiens, read-out: 96 h IC50, doxorubicin cytotoxicity, 41MdoxR",280 nM
same,"Rf, resistance factor (IC50 resistant line/IC50 parent line), 41MdoxR/41M",[9],approximately 7
same,"Rf, resistance factor (IC50 resistant line/IC50 parent line), 41MdoxR/41M",[9]; listed as Doxorubicin,7.2
"CC/C(=C(\c1ccc(I)cc1)c1ccc(OCCN2CCCC2)cc1)c1ccccc1 [idoxifene, Pyrrolidino-4-iodotamoxifen]","Rf, resistance factor (IC50 resistant line/IC50 parent line), CH1cisR6/CH1",[1],< 1
same,IC50,[10],1400 nM
same,highest non-toxic concentration,[11],2 µM
same,"effect on rate of DNA interstrand cross-link (ISC) removal, CH1cisR6",[4]; [16],did not markedly affect
same,"effect on rate of DNA interstrand cross-link (ISC) removal, CH1",[5]; [16],did not markedly affect
same,"Rf, resistance factor (IC50 resistant line/IC50 parent line), 41McisR6/41M",[2],< 1
same,"effect on platinum accumulation, 41McisR6",[12],no significant difference
same,"effect on platinum uptake, CH1cisR6",[13],no difference in uptake
same,IC50,[14],4500 nM
CC/C(=C(\c1ccccc1)c1ccc(OCCN(C)C)cc1)c1ccccc1 [tamoxifen],"Rf, resistance factor (IC50 resistant line/IC50 parent line), CH1cisR6/CH1",[1],< 1
same,highest non-toxic concentration,[11],4 µM
same,"Rf, resistance factor (IC50 resistant line/IC50 parent line), 41McisR6/41M",[2],< 1
same,IC50,[14],6300 nM
